Reference: patent US20120277161A1, “INHIBITION OF MULTIPLE CELL ACTIVATION PATHWAYS” (INTER-K PTY LIMITED, priority 2009, published 2012)
Entries after “also recorded” stand apart in the source; their conditions may differ.

Experiments:
[1] = test system: ERK1/2 activity in skin fibroblast cells; assay: Phospho-ERK1/2 upon FCS stimulation, skin fibroblast cells; format: cell-based; settings: compared to HT29 cells, data not shown
[2] = test system: HT29 human colon cancer cells; assay: Cell proliferation (MTT) assay, HT29 cells; format: cell-based; settings: MTT, 24 hour incubation period
Procedure: 6.1 Cell Proliferation (MTT) Assay Single cell suspensions of viable trypsinised cells were seeded into 96-well tissue culture plates at a density of 2×10^3 cells per well in a volume of 100 μl of a suitable culture media supplemented with heat inactivated foetal calf serum (FCS) (e.g., Dulbecco's Modified Eagles Medium (DMEM), with 10% v/v FCS, 1% L-glutamine, 2% (v/v) Hepes, and antibiotics). A set of triplicate wells was prepared for each concentration of the peptide dendrimer being tested. Additional sample wells containing untreated cells or media alone were set up in each treatment plate and processed in parallel as reference controls. A zero-time plate of untreated cells and media-alone wells was simultaneously prepared and an MTT assay carried out on this plate at the time of addition of the kinase inhibitor (i.e., polypeptide or dendrimer) to treatment plates. All plates were cultured for 24 hours before addition of the test dendrimer.
To prepare the MTT solution 100 mg of MTT (3-(4,5-dimethylthiazolyl-2)-2,5-diphenyltetrazolium bromide) (Cat #. M-128, Sigma, St Louis Mo.), is mixed with 20 ml of PBS at pH 7.4. The resulting solution is filter sterilized (0.2 μM syringe filter) and stored at 4° C. protected from light until use. MTT substrate is cleaved in growing cells to yield a water insoluble salt. After solubilisation of the salt crystals, a coloured product is produced the measurement of which allows quantitation of the proliferative activity of the cultured cells.
Appropriate concentrations of the kinase inhibitor were prepared by dilution of freshly prepared sterile 1 mM stock solutions into cell culture media to give a final well volume of 200 μl containing 10% v/v FCS. The zero-plate was processed by addition of MTT at this time. Cell culture was continued for a further 24 or 48 hours before addition of 20 μl of MTT in PBS (5 mg/ml, 0.2 um filter sterilised). The MTT cell proliferation assay measures cell proliferation rate and, in instances where cell viability is compromised, the assay indicates a comparative reduction in cell viability. After a 3 hour incubation in the presence of MTT (5% CO2 in air at 37° C.), plates were centrifuged at 450 g for 5 minutes, supernatant was removed by gentle suction and precipitated tetrazolium salt resuspended into 150 μl DMSO:glycine (0.1M glycine, 0.1M NaCl pH 10.5) (6:1 v/v) solution. Plates were gently vortexed to complete solubilisation of crystalline material and absorbance was read at 550 nm using a microplate reader. Sample data were processed to determine the comparative growth of treated samples relative to untreated controls.
HT29 cells were cultured for 48 hours in the presence of selected dendrimers and proliferation of the cells was assessed by MTT assay essentially as described in Example 6.1. The results were calculated as percentage proliferation of control cells (not treated with dendrimer).

[3] = test system: ERK1/2 activation in HT29 cells; assay: Phospho-ERK1/2 ELISA upon serum (FCS) stimulation, HT29 cells; format: cell-based, human
Procedure: HT29 cells were harvested using 0.5% trypsin EDTA (Invitrogen) and 5000 cells in 200 μL media were plated into each well of a clear NUNC tissue culture treated 96 well plate (NUNC). Cells were seeded in DMEM media (Invitrogen) supplemented with 10% (v/v) heat inactivated foetal calf serum (FCS, Invitrogen), 1% (v/v) L-glutamine (Invitrogen) and 2% (v/v) 1M Hepes buffer solution (Invitrogen). Cells were then incubated overnight at 37° C.
The following day, the growth medium was replaced with 100 μL of DMEM supplemented with 1% (v/v) L-glutamine and 2% (v/v) 1M HEPES buffer solution (Invitrogen) (serum free medium, SFM) and plates incubated for a further 24 hours at 37° C.
The dendrimers were re-constituted in SFM and the desired concentration was added to the plate in 100 μL SFM to make the total volume of each well 200 μL. The control wells (minus peptide) had only SFM added. The assay plate was then incubated at 37° C. for 4 hours. In studies in which cells were subjected to stimulation by serum, 22 μL FCS (10% v/v final concentration) was added to wells for the final 10 minutes at 37° C. SFM only (22 μL) was added to control wells.
Phospho-ERK levels were evaluated by ELISA utilising an Active Motif FACE ERK1/2 ELISA kit (Australian Biosearch, WA, Australia) as per the manufacturers instructions. Briefly, media was replaced and cells fixed with 4% formaldehyde in PBS, and after a one hour incubation with antibody blocking buffer (supplied), the primary phospho-ERK antibody was added and the plate incubated overnight at 4° C. Antibody dilution buffer only was added to control test wells containing no primary antibody. The following day, HRP-conjugated secondary antibody was added to all wells for one hour before plates were developed and the absorbance measured at 450 nm using a Labsystems Multiskan EX microplate reader (Labsystems, Thermo Labsystems, UK).

CC(C)C[C@H](NC(=O)[C@@H]1CCCN1C(=O)[C@H](CC(N)=O)NC(=O)[C@H](CCCCN)NC(=O)[C@H](C)NC(=O)[C@H](CCCCN)NC(=O)[C@H](CO)NC(=O)[C@@H](N)CCCNC(=N)N)C(=O)N[C@@H](Cc1ccc(O)cc1)C(=O)N[C@@H](CCCNC(=N)N)C(=O)NCCCC[C@H](NC(=O)[C@H](CCCNC(=N)N)NC(=O)[C@H](Cc1ccc(O)cc1)NC(=O)[C@H](CC(C)C)NC(=O)[C@@H]1CCCN1C(=O)[C@H](CC(N)=O)NC(=O)[C@H](CCCCN)NC(=O)[C@H](C)NC(=O)[C@H](CCCCN)NC(=O)[C@H](CO)NC(=O)[C@@H](N)CCCNC(=N)N)C(=O)NCCCC[C@H](NC(=O)[C@H](CCCCNC(=O)[C@H](CCCNC(=N)N)NC(=O)[C@H](Cc1ccc(O)cc1)NC(=O)[C@H](CC(C)C)NC(=O)[C@@H]1CCCN1C(=O)[C@H](CC(N)=O)NC(=O)[C@H](CCCCN)NC(=O)[C@H](C)NC(=O)[C@H](CCCCN)NC(=O)[C@H](CO)NC(=O)[C@@H](N)CCCNC(=N)N)NC(=O)[C@H](CCCNC(=N)N)NC(=O)[C@H](Cc1ccc(O)cc1)NC(=O)[C@H](CC(C)C)NC(=O)[C@@H]1CCCN1C(=O)[C@H](CC(N)=O)NC(=O)[C@H](CCCCN)NC(=O)[C@H](C)NC(=O)[C@H](CCCCN)NC(=O)[C@H](CO)NC(=O)[C@@H](N)CCCNC(=N)N)C(=O)NCCCC[C@H](NC(=O)[C@H](CCCCNC(=O)[C@H](CCCCNC(=O)[C@H](CCCNC(=N)N)NC(=O)[C@H](Cc1ccc(O)cc1)NC(=O)[C@H](CC(C)C)NC(=O)[C@@H]1CCCN1C(=O)[C@H](CC(N)=O)NC(=O)[C@H](CCCCN)NC(=O)[C@H](C)NC(=O)[C@H](CCCCN)NC(=O)[C@H](CO)NC(=O)[C@@H](N)CCCNC(=N)N)NC(=O)[C@H](CCCNC(=N)N)NC(=O)[C@H](Cc1ccc(O)cc1)NC(=O)[C@H](CC(C)C)NC(=O)[C@@H]1CCCN1C(=O)[C@H](CC(N)=O)NC(=O)[C@H](CCCCN)NC(=O)[C@H](C)NC(=O)[C@H](CCCCN)NC(=O)[C@H](CO)NC(=O)[C@@H](N)CCCNC(=N)N)NC(=O)[C@H](CCCCNC(=O)[C@H](CCCNC(=N)N)NC(=O)[C@H](Cc1ccc(O)cc1)NC(=O)[C@H](CC(C)C)NC(=O)[C@@H]1CCCN1C(=O)[C@H](CC(N)=O)NC(=O)[C@H](CCCCN)NC(=O)[C@H](C)NC(=O)[C@H](CCCCN)NC(=O)[C@H](CO)NC(=O)[C@@H](N)CCCNC(=N)N)NC(=O)[C@H](CCCNC(=N)N)NC(=O)[C@H](Cc1ccc(O)cc1)NC(=O)[C@H](CC(C)C)NC(=O)[C@@H]1CCCN1C(=O)[C@H](CC(N)=O)NC(=O)[C@H](CCCCN)NC(=O)[C@H](C)NC(=O)[C@H](CCCCN)NC(=O)[C@H](CO)NC(=O)[C@@H](N)CCCNC(=N)N)C(=O)NCCC(N)=O [Dend 8-10(4)]
inhibition of ERK1/2 activity upon FCS stimulation, skin fibroblast cells [1]: much less inhibition | inhibition of proliferation of HT29 colon cancer cells [2]: substantially more effective at inhibiting cell growth/proliferation | greater inhibition of activated phospho-ERK 1/2 than the closest test agent (TAT-G RSKAKNPLYR) ([3]; 5 μM, 1 hour, FCS stimulated HT29 cells): at least 30% | inhibition of activated phospho-ERK1/2 ([3]; 5 μM, 4 hours, HT29 cells, data not shown): approx. 95% | ERK1/2 activation (phospho-ERK1/2 levels) upon serum (FCS) stimulation, HT29 cells ([3]; exposure to dendrimer for 4 hours prior to FCS): abolished ERK1/2 activation in a dose-dependent manner; also recorded: significantly reduced
